The IC50 is the point on the concentration scale where inhibition reaches its midpoint. Read a low IC50 as inhibition by little substance. The Ki is a dissociation constant, usually derived from enzyme kinetics or from competition with a known ligand. Lower therefore signals tighter binding.

The values below come from BindingDB's records for doi:10.1021/jm800503y (University of Queensland, 2008).

The target in the assay is T1, Genome polyprotein [1424-1463]/[1502-1685] (West Nile virus, UniProt P06935).
T1 construct: 1424-1463; 1502-1685
T1 sequence (P06935 whole entry) 1: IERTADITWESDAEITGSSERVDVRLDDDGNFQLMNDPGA
T1 sequence (P06935 whole entry) 2: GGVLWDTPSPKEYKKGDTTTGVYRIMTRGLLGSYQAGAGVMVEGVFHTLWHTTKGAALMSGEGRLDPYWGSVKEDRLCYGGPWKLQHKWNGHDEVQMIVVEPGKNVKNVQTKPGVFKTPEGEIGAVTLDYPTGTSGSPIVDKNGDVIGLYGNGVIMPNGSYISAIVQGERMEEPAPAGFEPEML
Briefly: In Vitro Enzyme Inhibition. The settings on record: pH 9.5; 37 °C. Here is the method:
Inhibition of WNV protease activity was measured using recombinant WNV protease, which first incubated with inhibitor in 96-well plates. Catalysis was initiated by adding the substrate. Cleavage of the pNA chromophore from substrate produced a color change monitored at 405 nm. Optical density was measured every 30 s for 10 min by a Spectromax 250 reader, and Ki values were determined by Graphpad Prism.

SMILES strings stand for the structures.

Regarding `NCCCC[C@H](NC(=O)C=Cc1ccccc1)C(=O)N[C@@H](CCCCN)C(=O)N[C@H](C=O)CCCN=C(N)N` [(2S)-6-amino-2-[(2S)-6-amino-2-[(2E)-3-phenylprop-2-enamido]hexanamido]-N-[(2S)-5-carbamimidamido-1-oxopentan-2-yl]hexanamide], the IC50 was determined as 0.58 µM and the Ki stood at 0.104 µM.

`COc1ccc2cc([C@H](C)C(=O)N[C@@H](CCCCN)C(=O)N[C@@H](CCCCN)C(=O)N[C@H](C=O)CCCN=C(N)N)ccc2c1` [(2S)-6-amino-N-[(1S)-5-amino-1-{[(2S)-5-carbamimidamido-1-oxopentan-2-yl]carbamoyl}pentyl]-2-[(2S)-2-(6-methoxynaphthalen-2-yl)propanamido]hexanamide]: it took 0.112 µM to reach half-maximal inhibition (IC50) and affinity was put at a Ki of 0.02 µM.
